For 22 compounds, inhibition of growth results are on record in ChEMBL document CHEMBL3045974, “Global antifungal profile optimization of chlorophenyl derivatives against Botrytis cinerea and Colletotrichum gloeosporioides” (2009).

What all share (type): functional
The subject of test [1] is Botrytis cinerea. Briefly: Antifungal activity against Botryotinia fuckeliana 2100 assessed as inhibition of radial growth at 50 ug/mL at 25 degC measured after 5 days. Particulars: Botrytis cinerea, 2100, 120 h; read-out: GI.
Test [2] relates to Botrytis cinerea. Briefly: Antifungal activity against Botryotinia fuckeliana 2100 assessed as inhibition of radial growth at 100 ug/mL at 25 degC measured after 5 days. Conditions: Botrytis cinerea, 2100, 120 h; read-out: GI.
The test system of test [3] is Botrytis cinerea. Description: Antifungal activity against Botryotinia fuckeliana 2100 assessed as inhibition of radial growth at 150 ug/mL at 25 degC measured after 5 days. Conditions: Botrytis cinerea, 2100, 120 h; read-out: GI.
Test [4] deals with Colletotrichum gloeosporioides. Description: Antifungal activity against Colletotrichum gloeosporioides 20122-CECT assessed as inhibition of radial growth at 50 ug/mL at 25 degC measured after 5 days. Particulars: 120 h, read-out: GI.
Test [5] has as its system Colletotrichum gloeosporioides. Briefly: Antifungal activity against Colletotrichum gloeosporioides 20122-CECT assessed as inhibition of radial growth at 100 ug/mL at 25 degC measured after 5 days. Conditions: 120 h, read-out: GI.
Test [6] has as its system Colletotrichum gloeosporioides. Description: Antifungal activity against Colletotrichum gloeosporioides 20122-CECT assessed as inhibition of radial growth at 150 ug/mL at 25 degC measured after 5 days. Conditions: 120 h, read-out: GI.
Test [7] deals with Colletotrichum gloeosporioides. Briefly: Antifungal activity against Colletotrichum gloeosporioides 20122-CECT assessed as inhibition of radial growth at 50 ug/mL at 25 degC measured after 4 days. Conditions: 96 h, read-out: GI.
For test [8], the system named is Colletotrichum gloeosporioides. Briefly: Antifungal activity against Colletotrichum gloeosporioides 20122-CECT assessed as inhibition of radial growth at 100 ug/mL at 25 degC measured after 4 days. Particulars: 96 h, read-out: GI.
Test [9] deals with Colletotrichum gloeosporioides. Briefly: Antifungal activity against Colletotrichum gloeosporioides 20122-CECT assessed as inhibition of radial growth at 150 ug/mL at 25 degC measured after 4 days. Conditions: 96 h, read-out: GI.
In test [10] the test system is Botrytis cinerea. Briefly: Antifungal activity against Botryotinia fuckeliana 2100 assessed as inhibition of radial growth at 150 ug/mL at 25 degC measured after 4 days. Conditions: Botrytis cinerea, 2100, 96 h; read-out: GI.

In the case of `CC[C@@H](O)c1ccc(Cl)cc1`, the inhibition of growth at 50 µg/mL in the test with Botrytis cinerea [1] is 74%; in test [4], 28%. The figures for the inhibition of growth at 100 µg/mL (in the test with Botrytis cinerea [2]; in [5]) were 82% and 39%, respectively. For the same compound, the inhibition of growth at 150 µg/mL was found to be 98% in the test on Botrytis cinerea [3] and 59% in [6].
On to `O=C(Cc1ccccc1)c1ccc(Cl)cc1`, for which the inhibition of growth at 50 µg/mL with Botrytis cinerea [1] turned out to be 31%; in test [7] it was 9%. For the same compound, the results for the inhibition of growth at 100 µg/mL (in the test on Botrytis cinerea [2]; in test [8]) were 33% and 13%, respectively. The values for the inhibition of growth at 150 µg/mL (in the test with Botrytis cinerea [3]; in test [9]) were 38% and 17%, respectively.
Turning to `CC[C@H](O)c1cccc(Cl)c1`, the figures for the inhibition of growth at 50 µg/mL (in the test on Botrytis cinerea [1]; in test [4]) were 64% and 32%, respectively. Further, the values for the inhibition of growth at 100 µg/mL (in the test with Botrytis cinerea [2]; in [5]) were 71% and 37%, respectively. Moreover, the inhibition of growth at 150 µg/mL in the test with Botrytis cinerea [3] was determined as 82%; in test [6] it was 49%.
Turning to `CC[C@@H](OC(C)=O)c1cccc(Cl)c1`, the values for the inhibition of growth at 50 µg/mL (in the test with Botrytis cinerea [1]; in test [4]) were 22% and 0%, respectively. In addition, the inhibition of growth at 100 µg/mL with Botrytis cinerea [2] was determined as 29%; in test [5], 0%. Also, the values for the inhibition of growth at 150 µg/mL (with Botrytis cinerea [3]; in [6]) were 30% and 0%, respectively.
For the compound `CCC(=O)c1ccc(Cl)cc1`, the inhibition of growth at 50 µg/mL (in the test on Botrytis cinerea [1]; in [4]) was 28% in each case. The inhibition of growth at 100 µg/mL in the test with Botrytis cinerea [2] amounted to 51%; in [5], 29%. Further, the inhibition of growth at 150 µg/mL turned out to be 91% in the test with Botrytis cinerea [3] and 36% in test [6].
As for `CC[C@@H](O)c1cccc(Cl)c1`, the inhibition of growth at 50 µg/mL with Botrytis cinerea [1] stood at 72%; in test [4], 34%. In addition, the inhibition of growth at 100 µg/mL in the test on Botrytis cinerea [2] is 80%; in [5] it was 60%. Moreover, the figures for the inhibition of growth at 150 µg/mL (with Botrytis cinerea [3]; in test [6]) were 86% and 65%, respectively.
Take `O[C@H](c1ccccc1)c1ccc(Cl)cc1`: the inhibition of growth at 50 µg/mL came to 99% with Botrytis cinerea [1] and 73% in test [4]. Moreover, the inhibition of growth at 100 µg/mL with Botrytis cinerea [2] came to 100%; in test [5], 94%. The inhibition of growth at 150 µg/mL (with Botrytis cinerea [3]; in test [6]) was 100% in each case.
Regarding `CC[C@H](O)c1ccc(Cl)cc1`, the inhibition of growth at 50 µg/mL amounted to 62% with Botrytis cinerea [1] and 28% in test [4]. For the same compound, the inhibition of growth at 100 µg/mL with Botrytis cinerea [2] stood at 73%; in test [5], 29%. The inhibition of growth at 150 µg/mL is 92% in the test with Botrytis cinerea [3] and 33% in test [6].
Take `CC[C@@H](OC(C)=O)c1ccc(Cl)cc1`: the figures for the inhibition of growth at 50 µg/mL (in the test on Botrytis cinerea [1]; in test [4]) were 12% and 0%, respectively. Also, the figures for the inhibition of growth at 100 µg/mL (in the test with Botrytis cinerea [2]; in test [5]) were 40% and 0%, respectively. The inhibition of growth at 150 µg/mL with Botrytis cinerea [3] was found to be 44%; in [6] it was 0%.
On to `OC(c1ccccc1)c1ccc(Cl)cc1` (racemic), for which the inhibition of growth at 50 µg/mL in the test with Botrytis cinerea [1] is 95%; in [4], 63%. For the same compound, the inhibition of growth at 100 µg/mL in the test on Botrytis cinerea [2] came out at 100%; in [5], 87%. Moreover, the figures for the inhibition of growth at 150 µg/mL (with Botrytis cinerea [3]; in test [6]) were 100% and 94%, respectively.
Take `O[C@@H](c1ccc(Cl)cc1)C1CC1`: the inhibition of growth at 50 µg/mL in the test on Botrytis cinerea [1] turned out to be 77%; in test [4], 25%. In addition, the inhibition of growth at 100 µg/mL in the test on Botrytis cinerea [2] came to 100%; in [5], 40%. Besides, the inhibition of growth at 150 µg/mL in the test on Botrytis cinerea [3] stood at 100%; in [6], 52%.
Turning to `Clc1ccc(C2OC2c2ccccc2)cc1` (stereo not drawn), the inhibition of growth at 150 µg/mL was 28% in the test on Botrytis cinerea [3] and 0% in [6]. Further, the inhibition of growth at 50 µg/mL in test [4] was 0%. In addition, in test [5], the inhibition of growth at 100 µg/mL is 0%.
As for `O[C@@H](c1ccccc1)[C@@H](O)c1ccc(Cl)cc1`, the inhibition of growth at 50 µg/mL was found to be 33% in the test on Botrytis cinerea [1] and 27% in test [4]. Moreover, the inhibition of growth at 100 µg/mL in the test with Botrytis cinerea [2] was 63%; in test [5], 52%. The inhibition of growth at 150 µg/mL in the test on Botrytis cinerea [3] was found to be 68%; in [6] it was 62%.
As to `O[C@H](c1ccccc1)[C@H](O)c1ccc(Cl)cc1`, the inhibition of growth at 50 µg/mL is 32% with Botrytis cinerea [1] and 22% in [4]. The inhibition of growth at 100 µg/mL with Botrytis cinerea [2] stood at 59%; in [5], 42%. Moreover, the figures for the inhibition of growth at 150 µg/mL (in the test on Botrytis cinerea [3]; in test [6]) were 62% and 51%, respectively.
For the compound `CCC(O)c1ccc(Cl)cc1` (racemic), the inhibition of growth at 50 µg/mL was determined as 61% with Botrytis cinerea [1] and 28% in test [4]. The inhibition of growth at 100 µg/mL in the test on Botrytis cinerea [2] worked out at 77%; in [5], 41%. The inhibition of growth at 150 µg/mL in the test on Botrytis cinerea [3] turned out to be 95%; in test [6], 51%.
As for `CCC(=O)c1cccc(Cl)c1`, the inhibition of growth at 50 µg/mL with Botrytis cinerea [1] is 26%; in [4], 22%. Also, the values for the inhibition of growth at 100 µg/mL (with Botrytis cinerea [2]; in [5]) were 49% and 28%, respectively. For the same compound, the figures for the inhibition of growth at 150 µg/mL (in the test on Botrytis cinerea [3]; in test [6]) were 91% and 42%, respectively.
As to `Clc1ccc(/C=C/c2ccccc2)cc1`, the inhibition of growth at 150 µg/mL with Botrytis cinerea [10] came out at 19%; in [6] it was 0%. Further, in test [4], the inhibition of growth at 50 µg/mL worked out at 0%. Further, in [5], the inhibition of growth at 100 µg/mL turned out to be 0%.
On to `O[C@H](c1ccc(Cl)cc1)C1CC1`, for which the inhibition of growth at 50 µg/mL in the test on Botrytis cinerea [1] stood at 63%; in test [7], 20%. Moreover, the inhibition of growth at 100 µg/mL with Botrytis cinerea [2] was 80%; in [8], 23%. Besides, the values for the inhibition of growth at 150 µg/mL (with Botrytis cinerea [3]; in test [9]) were 97% and 27%, respectively.
Regarding `OC(c1ccc(Cl)cc1)C1CC1` (racemic), the results for the inhibition of growth at 50 µg/mL (in the test with Botrytis cinerea [1]; in test [4]) were 74% and 31%, respectively. The inhibition of growth at 100 µg/mL with Botrytis cinerea [2] is 100%; in test [5] it was 53%. The inhibition of growth at 150 µg/mL in the test with Botrytis cinerea [3] was determined as 100%; in test [6], 80%.
On to `O[C@@H](c1ccccc1)c1ccc(Cl)cc1`, for which the inhibition of growth at 50 µg/mL in the test with Botrytis cinerea [1] stood at 91%; in [4], 66%. The inhibition of growth at 100 µg/mL with Botrytis cinerea [2] worked out at 100%; in test [5], 85%. Besides, the inhibition of growth at 150 µg/mL came to 100% in the test with Botrytis cinerea [3] and 96% in [6].
As for `O=C(c1ccc(Cl)cc1)C1CC1` [(4-CHLOROPHENYL)(CYCLOPROPYL)METHANONE], the inhibition of growth at 50 µg/mL in the test with Botrytis cinerea [1] was found to be 88%; in [4], 21%. The inhibition of growth at 100 µg/mL came to 99% in the test with Botrytis cinerea [2] and 63% in [5]. Further, the inhibition of growth at 150 µg/mL in the test on Botrytis cinerea [3] stood at 100%; in test [6] it was 86%.
For the compound `CCC(O)c1cccc(Cl)c1` (racemic), the inhibition of growth at 50 µg/mL came out at 67% with Botrytis cinerea [1] and 31% in test [4]. Also, the inhibition of growth at 100 µg/mL turned out to be 77% in the test on Botrytis cinerea [2] and 60% in test [5]. For the same compound, the values for the inhibition of growth at 150 µg/mL (in the test with Botrytis cinerea [3]; in test [6]) were 83% and 62%, respectively.
